# Reference: ChEMBL document CHEMBL5096203, “Discovery of 6-[(3S,4S)-4-Amino-3-methyl-2-oxa-8-azaspiro[4.5]decan-8-yl]-3-(2,3-dichlorophenyl)-2-methyl-3,4-dihydropyrimidin-4-one (IACS-15414), a Potent and Orally Bioavailable SHP2 Inhibitor” (J Med Chem, 2021)
# Columns and labels:
# [1] = Permeability of compound across apical to basolateral side in dog wild type MDCK-MDR1 cells; type: ADME, cell-based, Canis lupus familiaris; conditions: read-out: permeability
# [2] = Permeability of compound across basolateral to apical side in dog wild type MDCK cells; type: ADME, cell-based, Canis lupus familiaris; conditions: read-out: permeability
# [3] = Permeability of compound across apical to basolateral side in dog wild type MDCK cells; type: ADME, cell-based, Canis lupus familiaris; conditions: read-out: permeability
# [4] = Permeability of compound across basolateral to apical side in dog wild type MDCK-MDR1 cells; type: ADME, cell-based, Canis lupus familiaris; conditions: read-out: permeability
# [5] = Volume of distribution at steady state in Sprague-Dawley rat 3 mg/kg, po or 3 mg/kg, iv measured at 0.083 to 24 hrs by LC-MS/MS analysis; type: ADME, organism-based; conditions: in vivo, time 0.083-24 hrs
# [6] = AUC (0 to 24 hrs) in Sprague-Dawley rat 0.3 mg/kg, iv measured at 0.083 to 24 hrs by LC-MS/MS analysis; type: ADME, organism-based; parameters: time lower 0.083 hrs, dose 0.3 mg/kg, time upper 24 hrs, route iv; conditions: in vivo
# [7] = Clearance in Sprague-Dawley rat 0.3 mg/kg, iv measured at 0.083 to 24 hrs by LC-MS/MS analysis; type: ADME, organism-based; conditions: in vivo, time 0.083-24 hrs
# [8] = Half life in Sprague-Dawley rat 0.3 mg/kg, iv measured at 0.083 to 24 hrs by LC-MS/MS analysis; type: ADME, organism-based; conditions: in vivo, time 0.083-24 hrs
# [9] = Dissociation constant, pKa of the compound; type: physicochemical
# [10] = Oral bioavailability in Sprague-Dawley rat 3 mg/kg measured at 0.083 to 24 hrs by LC-MS/MS analysis; type: ADME, organism-based; conditions: in vivo, time 0.083-24 hrs
# [11] = Oral bioavailability in Sprague-Dawley rat 0.3 mg/kg measured at 0.083 to 24 hrs by LC-MS/MS analysis; type: ADME, organism-based; conditions: in vivo, time 0.083-24 hrs
# [12] = Metabolic stability in rat microsome assessed as intrinsic clearance incubated for 45 mins in presence of NADPH regenerating system by LC-MS/MS analysis; type: ADME; conditions: microsomes
# [13] = Metabolic stability in human microsome assessed as intrinsic clearance incubated for 45 mins in presence of NADPH regenerating system by LC-MS/MS analysis; type: ADME; conditions: microsomes
# [14] = Half life in Sprague-Dawley rat 1 mg/kg, iv measured at 0.083 to 24 hrs by LC-MS/MS analysis; type: ADME, organism-based; conditions: in vivo, time 0.083-24 hrs
# Homo sapiens [15] = species: Homo sapiens; experiment: Binding affinity to human SHP2 E76K mutant assessed as change in enthalpy by isothermal titration calorimetry assay
# [16] = Clearance in Sprague-Dawley rat 1 mg/kg, iv measured at 0.083 to 24 hrs by LC-MS/MS analysis; type: ADME, organism-based; conditions: in vivo, time 0.083-24 hrs
# [17] = Volume of distribution at steady state in Sprague-Dawley rat 3 mg/kg, po or 1 mg/kg, iv measured at 0.083 to 24 hrs by LC-MS/MS analysis; type: ADME, organism-based; conditions: in vivo, time 0.083-24 hrs
# [18] = Oral bioavailability in Sprague-Dawley rat 3 mg/kg, iv measured at 0.083 to 24 hrs by LC-MS/MS analysis; type: ADME, organism-based; conditions: in vivo, time 0.083-24 hrs
# [19] = AUC (0 to 24 hrs) in Sprague-Dawley rat 1 mg/kg, iv measured at 0.083 to 24 hrs by LC-MS/MS analysis; type: ADME, organism-based; parameters: dose 1 mg/kg, time 0.083-24 hrs, route iv; conditions: in vivo
# Homo sapiens [20] = species: Homo sapiens; experiment: Binding affinity to human SHP2 E76K mutant assessed as change in entropy by isothermal titration calorimetry assay
# [21] = Half life in iv dosed Cynomolgus monkey measured at 0.083 to 24 hrs by LC-MS/MS analysis; type: ADME, organism-based, Macaca fascicularis; conditions: in vivo, time 0.083-24 hrs
# [22] = Metabolic stability in Beagle dog microsome assessed as intrinsic clearance incubated for 45 mins in presence of NADPH regenerating system by LC-MS/MS analysis; type: ADME, Canis lupus familiaris; conditions: microsomes, read-out: CLH
# [23] = Clearance in iv dosed Cynomolgus monkey measured at 0.083 to 24 hrs by LC-MS/MS analysis; type: ADME, organism-based, Macaca fascicularis; conditions: in vivo, time 0.083-24 hrs
# [24] = Volume of distribution at steady state in Cynomolgus monkey measured at 0.083 to 24 hrs by LC-MS/MS analysis; type: ADME, Macaca fascicularis; conditions: in vivo, time 0.083-24 hrs, read-out: Vdss
# [25] = Half life in iv dosed Sprague-Dawley rat measured at 0.083 to 24 hrs by LC-MS/MS analysis; type: ADME, organism-based; conditions: in vivo, time 0.083-24 hrs
# [26] = Volume of distribution at steady state in CD-1 mouse measured at 0.083 to 24 hrs by LC-MS/MS analysis; type: ADME; conditions: in vivo, time 0.083-24 hrs, read-out: Vdss
# [27] = Oral bioavailability in […] Sprague-Dawley rat measured at 0.083 to 24 hrs by LC-MS/MS analysis; type: ADME, organism-based; conditions: in vivo, time 0.083-24 hrs
# [28] = Oral bioavailability in Cynomolgus monkey measured at 0.083 to 24 hrs by LC-MS/MS analysis; type: ADME, organism-based, Macaca fascicularis; conditions: in vivo, time 0.083-24 hrs
# [29] = Oral bioavailability in CD-1 mouse measured at 0.083 to 24 hrs by LC-MS/MS analysis; type: ADME, organism-based; conditions: in vivo, time 0.083-24 hrs
# [30] = Volume of distribution at steady state in Sprague-Dawley rat measured at 0.083 to 24 hrs by LC-MS/MS analysis; type: ADME; conditions: in vivo, time 0.083-24 hrs, read-out: Vdss
# [31] = Half life in iv dosed CD-1 mouse measured at 0.083 to 24 hrs by LC-MS/MS analysis; type: ADME, organism-based; conditions: in vivo, time 0.083-24 hrs
# [32] = Permeability of compound across apical to basolateral side in dog MDCK-MDR1 cells; type: ADME, cell-based, Canis lupus familiaris
# [33] = Clearance in iv dosed Beagle dog measured at 0.083 to 24 hrs by LC-MS/MS analysis; type: ADME, organism-based, Canis lupus familiaris; conditions: in vivo, time 0.083-24 hrs
# [34] = Half life in iv dosed Beagle dog measured at 0.083 to 24 hrs by LC-MS/MS analysis; type: ADME, organism-based, Canis lupus familiaris; conditions: in vivo, time 0.083-24 hrs
# [35] = Volume of distribution at steady state in Beagle dog measured at 0.083 to 24 hrs by LC-MS/MS analysis; type: ADME, Canis lupus familiaris; conditions: in vivo, time 0.083-24 hrs, read-out: Vdss
# [36] = Permeability of compound across basolateral to apical side in dog MDCK-MDR1 cells; type: ADME, cell-based, Canis lupus familiaris
# [37] = Clearance in iv dosed CD-1 mouse measured at 0.083 to 24 hrs by LC-MS/MS analysis; type: ADME, organism-based; conditions: in vivo, time 0.083-24 hrs
# [38] = Metabolic stability in mouse microsome assessed as intrinsic clearance incubated for 45 mins in presence of NADPH regenerating system by LC-MS/MS analysis; type: ADME; conditions: microsomes, read-out: CLH
# [39] = Clearance in iv dosed Sprague-Dawley rat measured at 0.083 to 24 hrs by LC-MS/MS analysis; type: ADME, organism-based; conditions: in vivo, time 0.083-24 hrs
# [40] = Metabolic stability in monkey microsome assessed as intrinsic clearance incubated for 45 mins in presence of NADPH regenerating system by LC-MS/MS analysis; type: ADME, Macaca mulatta; conditions: rhesus monkey, microsomes, read-out: CLH
# [41] = Oral bioavailability in Beagle dog measured at 0.083 to 24 hrs by LC-MS/MS analysis; type: ADME, organism-based, Canis lupus familiaris; conditions: in vivo, time 0.083-24 hrs
compound,measurement,setting,value
C[C@@H]1OCC2(CCN(c3cnc4c(-c5cccc(Cl)c5Cl)n[nH]c4n3)CC2)[C@@H]1N,Papp A→B,[1],6.4 ×10⁻⁶ cm/s
same,Papp B→A,[2],10 ×10⁻⁶ cm/s
same,Papp A→B,[3],9 ×10⁻⁶ cm/s
same,Papp B→A,[4],10.2 ×10⁻⁶ cm/s
CNc1nccc(-c2n[nH]c3nc(N4CCC(C)(N)CC4)cnc23)c1Cl,Vdss,[5],12.9 L/kg
same,AUC(0-t),[6],0.314 µM·h
same,Papp A→B,[1],2.1 ×10⁻⁶ cm/s
same,Papp B→A,[2],8 ×10⁻⁶ cm/s
same,clearance,[7],37 mL/min/kg
same,Papp A→B,[3],4.2 ×10⁻⁶ cm/s
same,Papp B→A,[4],28 ×10⁻⁶ cm/s
same,half-life,[8],4.8 h
same,pKa,[9],10.4
same,bioavailability,[10],38%
CCNc1nccc(-c2n[nH]c3nc(N4CCC5(CC4)CO[C@@H](C)[C@H]5N)cnc23)c1Cl,Papp A→B,[1],8.6 ×10⁻⁶ cm/s
same,Papp B→A,[2],25 ×10⁻⁶ cm/s
same,Papp A→B,[3],12.4 ×10⁻⁶ cm/s
same,Papp B→A,[4],40.7 ×10⁻⁶ cm/s
same,pKa,[9],9.3
N[C@@H]1CCCC12CCN(c1nc3[nH]nc(-c4cccc(Cl)c4Cl)c3c(=O)[nH]1)CC2,Vdss,[5],2.2 L/kg
same,bioavailability,[11],3%
same,Papp A→B,[1],0.3 ×10⁻⁶ cm/s
same,Papp B→A,[2],3.64 ×10⁻⁶ cm/s
same,clearance,[7],12 mL/min/kg
same,CLint scaled,[12],26 mL/min/kg
same,Papp A→B,[3],0.27 ×10⁻⁶ cm/s
same,Papp B→A,[4],9.5 ×10⁻⁶ cm/s
same,CLint scaled,[13]; read-out: CL,2 mL/min/kg
same,half-life,[8],2.7 h
CC1(N)CCN(c2cnc3c(-c4cccc(Cl)c4Cl)n[nH]c3n2)CC1,half-life,[14],13 h
same,deltaH,Homo sapiens [15],-3.67 kcal/mol
same,Papp A→B,[1],6 ×10⁻⁶ cm/s
same,Papp B→A,[2],6.8 ×10⁻⁶ cm/s
same,Papp A→B,[3],6 ×10⁻⁶ cm/s
same,Papp B→A,[4],8.5 ×10⁻⁶ cm/s
same,CL,[16],70%
same,pKa,[9],10.4
same,Vdss,[17],21 L/kg
same,bioavailability,[18],70%
same,AUC(0-t),[19],2 µM·h
same,-TdeltaS,Homo sapiens [20],-5.44 kcal/mol
Cc1nc(N2CCC3(CC2)CO[C@@H](C)[C@H]3N)c(Cl)c(=O)n1-c1cccc(Cl)c1Cl,half-life,[21],7.3 h
same,CLint scaled,[22],529 mL/min/kg
same,clearance,[23],8.3 mL/min/kg
same,Vd,[24],4.5 L/kg
same,half-life,[25],1.8 h
same,Vd,[26],4.6 L/kg
same,bioavailability,[27],38%
same,bioavailability,[28],53%
same,bioavailability,[29],119%
same,Vd,[30],3.7 L/kg
same,half-life,[31],6 h
same,CLint scaled,[12],72 mL/min/kg
same,Papp A→B,[32],18 ×10⁻⁶ cm/s
same,clearance,[33],9.2 mL/min/kg
same,CLint scaled,[13]; read-out: CLH,10 mL/min/kg
same,half-life,[34],5.5 h
same,Vd,[35],3.5 L/kg
same,Papp B→A,[36],19 ×10⁻⁶ cm/s
same,clearance,[37],11.6 mL/min/kg
same,CLint scaled,[38],37 mL/min/kg
same,clearance,[39],41.3 mL/min/kg
same,CLint scaled,[40],74 mL/min/kg
same,bioavailability,[41],88%
Cc1nc(N2CCC3(CC2)CO[C@@H](C)[C@H]3N)cc(=O)n1-c1cccc(Cl)c1Cl (stereo in doubt),half-life,[21],9.4 h
same,CLint scaled,[22],17 mL/min/kg
same,clearance,[23],4.2 mL/min/kg
same,Vd,[24],3.4 L/kg
same,half-life,[25],5.9 h
same,Vd,[26],2.6 L/kg
same,bioavailability,[27],80%
same,bioavailability,[28],89%
same,bioavailability,[29],99%
same,Vd,[30],2.5 L/kg
same,half-life,[31],3.5 h
same,CLint scaled,[12],0.8 mL/min/kg
same,Papp A→B,[32],12 ×10⁻⁶ cm/s
same,clearance,[33],4.2 mL/min/kg
same,CLint scaled,[13]; read-out: CL,0.7 mL/min/kg
same,half-life,[34],8.6 h
same,Vd,[35],2.9 L/kg
same,Papp B→A,[36],32 ×10⁻⁶ cm/s
same,clearance,[37],9.2 mL/min/kg
same,CLint scaled,[38],28 mL/min/kg
same,clearance,[39],5.8 mL/min/kg
same,CLint scaled,[40],21 mL/min/kg
same,bioavailability,[41],106%
